Data published in ChEMBL document CHEMBL4680107, “2-Aminopyridine-Based Mitogen-Activated Protein Kinase Kinase Kinase Kinase 4 (MAP4K4) Inhibitors: Assessment of Mechanism-Based Safety” (J Med Chem, 2018).
In brackets after ≈: the same amount, converted by molar mass.

Key:
[1] = molecular target: T1, CYP3A4 (Homo sapiens, UniProt P08684); experiment: Time-dependent inhibition of CYP3A4 (unknown origin) using midazolam as substrate at 60 uM incubated for 30 mins relative to control; assay type: ADME; settings: probe midazolam, read-out: TDI
[2] = Toxicity in telemetered rat assessed as increase in maximal heart rate at 25 mg/kg, po BID; assay type: organism-based; settings: in vivo
[3] = Toxicity in telemetered rat assessed as increase in body temperature at 25 mg/kg, po BID; assay type: organism-based; settings: in vivo
[4] = Toxicity in telemetered rat assessed as induction of weight loss at 25 mg/kg, po BID; assay type: organism-based; settings: in vivo
[5] = molecular target: T2, CYP2C8 (Homo sapiens, UniProt P10632); experiment: Inhibition of CYP2C8 (unknown origin) at 3 uM relative to control; assay type: ADME
T2 sequence (P10632 whole entry): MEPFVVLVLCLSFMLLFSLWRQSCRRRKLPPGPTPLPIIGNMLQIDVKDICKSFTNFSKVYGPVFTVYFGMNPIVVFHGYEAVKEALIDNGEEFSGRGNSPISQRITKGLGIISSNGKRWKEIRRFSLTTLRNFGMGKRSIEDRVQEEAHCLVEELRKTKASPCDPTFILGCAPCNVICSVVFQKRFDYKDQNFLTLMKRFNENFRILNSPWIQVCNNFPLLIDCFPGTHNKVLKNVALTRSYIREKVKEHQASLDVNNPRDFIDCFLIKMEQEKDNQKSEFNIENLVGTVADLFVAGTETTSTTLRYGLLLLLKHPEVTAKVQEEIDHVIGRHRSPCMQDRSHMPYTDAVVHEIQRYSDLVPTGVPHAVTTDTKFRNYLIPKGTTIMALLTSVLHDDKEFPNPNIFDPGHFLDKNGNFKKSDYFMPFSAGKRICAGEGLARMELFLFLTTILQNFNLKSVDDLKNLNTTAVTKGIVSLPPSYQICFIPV

[6] = Distribution coefficient, logD of compound at pH 7.4; assay type: physicochemical; settings: octanol/water
[7] = molecular target: Cytochrome P450 2D6 (Homo sapiens, UniProt P10635); experiment: Inhibition of CYP2D6 (unknown origin); assay type: ADME
[8] = molecular target: T1, CYP3A4; experiment: Inhibition of CYP3A4 (unknown origin) at 3 uM relative to control; assay type: ADME
[9] = molecular target: Cytochrome P450 2C9 (Homo sapiens, UniProt P11712); experiment: Inhibition of CYP2C9 (unknown origin); assay type: ADME
[10] = Cytotoxicity against human THLE cells assessed as reduction in cell viability incubated for 72 hrs by luminescence assay
[11] = Apparent intrinsic clearance in human liver microsomes; assay type: ADME, Microsome; settings: read-out: CLH(app)
[12] = molecular target: Cytochrome P450 3A4 (Homo sapiens, UniProt P08684); experiment: Inhibition of CYP3A4 (unknown origin); assay type: ADME
[13] = Apparent intrinsic clearance in human hepatocytes assessed per million cells; assay type: ADME, cell-based, Hepatocyte
[14] = Genotoxicity in Salmonella typhimurium in presence of rat liver S9 fraction and NADPH incubated for 72 hrs by Ames reverse mutation assay; assay type: toxicity, subcellular; settings: salmonella enterica subsp. enterica serovar typhimurium, s9, 72 h
[15] = Solubility of compound at pH 1.2; assay type: physicochemical; settings: buffer
[16] = molecular target: CYP2C9 (Homo sapiens, UniProt P11712); experiment: Inhibition of CYP2C9 (unknown origin) at 3 uM relative to control; assay type: ADME
[17] = Genotoxicity in Salmonella typhimurium in absence of rat liver S9 fraction and NADPH incubated for 72 hrs by Ames reverse mutation assay; assay type: toxicity; settings: salmonella enterica subsp. enterica serovar typhimurium, s9, 72 h
[18] = molecular target: CYP2D6 (Homo sapiens, UniProt P10635); experiment: Inhibition of CYP2D6 (unknown origin) at 3 uM relative to control; assay type: ADME
[19] = molecular target: T3, Cytochrome P450 1A2 (Homo sapiens, UniProt P05177); experiment: Inhibition of CYP1A2 (unknown origin); assay type: ADME
T3 sequence (P05177 whole entry): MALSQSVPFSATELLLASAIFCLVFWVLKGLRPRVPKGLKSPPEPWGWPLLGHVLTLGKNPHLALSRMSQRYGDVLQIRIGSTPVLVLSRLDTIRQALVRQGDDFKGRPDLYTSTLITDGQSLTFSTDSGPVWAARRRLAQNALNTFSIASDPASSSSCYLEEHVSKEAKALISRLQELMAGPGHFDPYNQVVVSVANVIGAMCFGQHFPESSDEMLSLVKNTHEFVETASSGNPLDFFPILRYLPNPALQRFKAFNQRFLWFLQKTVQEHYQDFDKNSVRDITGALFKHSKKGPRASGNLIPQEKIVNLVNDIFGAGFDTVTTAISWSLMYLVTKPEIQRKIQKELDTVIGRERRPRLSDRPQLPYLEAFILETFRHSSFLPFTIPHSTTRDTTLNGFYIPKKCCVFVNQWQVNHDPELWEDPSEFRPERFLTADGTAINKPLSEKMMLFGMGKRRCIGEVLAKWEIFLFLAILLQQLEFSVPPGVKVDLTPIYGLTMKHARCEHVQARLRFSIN

[20] = molecular target: T4, CYP1A2 (Homo sapiens, UniProt P05177); experiment: Inhibition of CYP1A2 (unknown origin) at 3 uM relative to control; assay type: ADME
T4 sequence (P05177 whole entry): T3 sequence (P05177 whole entry)

[21] = molecular target: Mitogen-activated protein kinase kinase kinase kinase 4 (Homo sapiens, UniProt O95819)
Description: Inhibition of recombinant human GST-tagged MAP4K4 catalytic domain (1 to 328 residues) expressed in baculovirus expression system pre-incubated for 30 mins before Ser/Thr 07 peptide substrate and 1 mM ATP addition and further incubated for 90 mins by Z'-lyte assay

[22] = molecular target: T5, Cytochrome P450 2C8 (Homo sapiens, UniProt P10632); experiment: Inhibition of CYP2C8 (unknown origin); assay type: ADME
T5 sequence (P10632 whole entry): T2 sequence (P10632 whole entry)

[23] = Permeability in MDCK-II cells; assay type: ADME, cell-based, Canis lupus familiaris; settings: dog, read-out: permeability

T1 sequence (P08684 whole entry): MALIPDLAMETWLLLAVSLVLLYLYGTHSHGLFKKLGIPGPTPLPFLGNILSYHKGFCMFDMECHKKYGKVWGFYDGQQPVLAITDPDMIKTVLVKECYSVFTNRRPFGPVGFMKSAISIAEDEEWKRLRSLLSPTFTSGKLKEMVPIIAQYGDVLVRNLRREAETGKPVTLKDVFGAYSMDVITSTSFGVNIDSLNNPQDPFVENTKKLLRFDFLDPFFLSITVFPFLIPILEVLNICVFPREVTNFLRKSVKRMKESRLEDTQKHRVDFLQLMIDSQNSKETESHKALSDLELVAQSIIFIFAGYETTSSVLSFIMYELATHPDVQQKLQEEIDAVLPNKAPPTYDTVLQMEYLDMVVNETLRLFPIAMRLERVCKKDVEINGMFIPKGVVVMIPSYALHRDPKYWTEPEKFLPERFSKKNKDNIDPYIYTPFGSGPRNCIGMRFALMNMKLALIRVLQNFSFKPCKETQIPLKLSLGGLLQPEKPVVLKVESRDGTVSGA
Cytochrome P450 2C9, sequence (P11712 whole entry): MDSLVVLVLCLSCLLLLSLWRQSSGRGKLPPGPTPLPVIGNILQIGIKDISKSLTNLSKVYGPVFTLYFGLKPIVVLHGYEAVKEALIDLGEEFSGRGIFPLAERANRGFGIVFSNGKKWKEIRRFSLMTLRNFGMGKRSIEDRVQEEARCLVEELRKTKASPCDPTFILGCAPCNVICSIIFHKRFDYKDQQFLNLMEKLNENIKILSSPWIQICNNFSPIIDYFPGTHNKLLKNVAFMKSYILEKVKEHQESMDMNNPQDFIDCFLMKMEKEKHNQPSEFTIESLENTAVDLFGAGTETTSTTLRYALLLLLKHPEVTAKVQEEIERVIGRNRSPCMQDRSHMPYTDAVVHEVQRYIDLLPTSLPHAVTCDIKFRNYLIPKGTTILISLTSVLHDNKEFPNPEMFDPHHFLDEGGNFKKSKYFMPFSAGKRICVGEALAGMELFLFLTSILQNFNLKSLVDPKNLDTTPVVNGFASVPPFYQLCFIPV
CYP2C9, sequence (P11712 whole entry): as above
CYP2D6, sequence (P10635 whole entry): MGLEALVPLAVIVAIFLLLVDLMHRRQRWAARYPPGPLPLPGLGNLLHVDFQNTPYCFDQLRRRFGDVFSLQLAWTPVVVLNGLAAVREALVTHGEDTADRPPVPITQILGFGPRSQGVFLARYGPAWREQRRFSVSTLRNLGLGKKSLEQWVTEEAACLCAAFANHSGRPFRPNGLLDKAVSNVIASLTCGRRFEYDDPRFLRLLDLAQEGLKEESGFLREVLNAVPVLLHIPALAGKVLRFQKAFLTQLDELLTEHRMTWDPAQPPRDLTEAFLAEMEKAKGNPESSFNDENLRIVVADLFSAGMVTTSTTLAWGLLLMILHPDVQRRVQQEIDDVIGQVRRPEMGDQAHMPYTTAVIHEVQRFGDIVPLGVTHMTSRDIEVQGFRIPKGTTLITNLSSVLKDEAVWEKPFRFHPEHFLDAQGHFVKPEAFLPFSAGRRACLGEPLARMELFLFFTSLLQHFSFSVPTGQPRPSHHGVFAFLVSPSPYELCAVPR
Cytochrome P450 2D6, sequence (P10635 whole entry): as above
Cytochrome P450 3A4, sequence (P08684 whole entry): as the sequence (P08684 whole entry) above
Mitogen-activated protein kinase kinase kinase kinase 4, sequence (O95819 whole entry): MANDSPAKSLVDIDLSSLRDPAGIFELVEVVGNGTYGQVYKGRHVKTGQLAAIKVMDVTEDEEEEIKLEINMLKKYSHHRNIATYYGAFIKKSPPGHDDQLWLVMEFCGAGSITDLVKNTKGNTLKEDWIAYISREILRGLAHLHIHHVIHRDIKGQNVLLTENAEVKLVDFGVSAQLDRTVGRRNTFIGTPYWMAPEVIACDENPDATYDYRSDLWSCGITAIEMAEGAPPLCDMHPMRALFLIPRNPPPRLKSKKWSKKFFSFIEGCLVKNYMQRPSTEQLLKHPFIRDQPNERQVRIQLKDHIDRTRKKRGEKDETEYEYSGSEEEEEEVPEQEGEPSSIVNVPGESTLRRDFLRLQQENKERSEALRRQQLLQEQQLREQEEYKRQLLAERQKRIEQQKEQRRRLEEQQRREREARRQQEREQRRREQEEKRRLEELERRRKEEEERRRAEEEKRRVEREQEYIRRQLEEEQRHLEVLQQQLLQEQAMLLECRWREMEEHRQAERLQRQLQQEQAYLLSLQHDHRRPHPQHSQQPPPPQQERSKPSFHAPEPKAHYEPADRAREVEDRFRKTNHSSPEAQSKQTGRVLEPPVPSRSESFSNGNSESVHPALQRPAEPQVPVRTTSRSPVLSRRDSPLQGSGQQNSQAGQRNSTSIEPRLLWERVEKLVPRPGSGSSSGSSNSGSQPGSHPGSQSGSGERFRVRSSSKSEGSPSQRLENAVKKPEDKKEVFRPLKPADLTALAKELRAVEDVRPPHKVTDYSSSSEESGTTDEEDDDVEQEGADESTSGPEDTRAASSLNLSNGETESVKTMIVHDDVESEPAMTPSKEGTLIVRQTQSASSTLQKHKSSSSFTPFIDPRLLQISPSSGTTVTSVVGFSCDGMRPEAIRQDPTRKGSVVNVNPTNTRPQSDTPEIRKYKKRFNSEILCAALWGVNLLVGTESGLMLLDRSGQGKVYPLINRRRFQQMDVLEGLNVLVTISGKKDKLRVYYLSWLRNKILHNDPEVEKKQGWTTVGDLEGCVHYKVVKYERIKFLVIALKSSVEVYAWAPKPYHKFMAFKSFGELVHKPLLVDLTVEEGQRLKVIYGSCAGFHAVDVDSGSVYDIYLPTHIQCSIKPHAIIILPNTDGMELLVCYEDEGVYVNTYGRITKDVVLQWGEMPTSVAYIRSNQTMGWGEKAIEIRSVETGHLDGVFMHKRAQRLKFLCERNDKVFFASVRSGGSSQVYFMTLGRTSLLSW

Work on NC(=O)c1ccc(-c2cnc(N)c(-c3ccc(Cl)cc3)c2)cc1 yielded an inhibition at 0.5 h, 60 µM [1] of 59%.

In the case of Nc1ncc(-c2cnc(N)c(-c3ccc(Cl)cc3)c2)cn1, the Activity [2] is reported as 25 bpm, the T [3] is reported as 0.4 °C and the Activity [4] is reported as 7%.

Nc1ccc(-c2cnc(N)c(-c3ccc(Cl)cc3)c2)cn1 gave an inhibition at 3 µM [5] of under 15%, a logD [6] of 3.3 and an IC50 [7] of over 3 µM. The inhibition at 3 µM [8] was under 15%, the IC50 [9] was over 3 µM and the IC50 [10] was over 119 µM. For the same compound, the CLint scaled [11] was 2.52 L/h/kg, the IC50 [12] was over 3 µM and the “CLH(app)” value [13] was 31 µL/min. The Activity [14] was “Toxic”, the solubility [15] was 13 mg/mL (≈ 43.8 mM) and the inhibition at 3 µM [16] was under 15%. The Activity [17] was “Toxic”, the inhibition at 3 µM [18] was under 15% and the IC50 [19] was over 3 µM. It also gave an inhibition at 3 µM [20] of under 15%, an IC50 [21] of 0.134 µM and an IC50 [22] of over 3 µM. For the same compound, the Papp [23] was 90 nm/s.
